Source: the NIST ThermoML archive (doi:10.1016/j.tca.2018.11.018)

Test: xn = mol fraction of the nth substance listed
Conditions: 100 kPa, Liquid; for viscosity: Falling or rolling sphere viscometry; for mass density: Vibrating tube method

CCCC[N+]1(C)CCCCC1.[Br-] [N-butyl-N-methylpiperidinium bromide] + O
Conditions	mass density [kg/m3]	viscosity [mPa·s]
298.15 K, x1 = 0.03	1057.7	1.991
298.15 K, x1 = 0.06	1097.6	3.692
298.15 K, x1 = 0.089	1126.3	6.598
298.15 K, x1 = 0.124	1150.5	12.67
298.15 K, x1 = 0.159	1167.6	21.36
298.15 K, x1 = 0.195	1180.6	35.21
298.15 K, x1 = 0.244	1193.3	69.27
303.15 K, x1 = 0.03	1054.4	1.735
303.15 K, x1 = 0.06	1094.6	3.121
303.15 K, x1 = 0.089	1122.9	5.435
303.15 K, x1 = 0.124	1146.9	10.39
303.15 K, x1 = 0.159	1164	16.98
303.15 K, x1 = 0.195	1176.9	27.19
303.15 K, x1 = 0.244	1189.7	51.06
303.15 K, x1 = 0.271	1195.4	72.65
308.15 K, x1 = 0.03	1051.9	1.529
308.15 K, x1 = 0.06	1091.5	2.676
308.15 K, x1 = 0.089	1119.4	4.553
308.15 K, x1 = 0.124	1143.2	8.531
308.15 K, x1 = 0.159	1160.3	13.62
308.15 K, x1 = 0.195	1173.3	21.32
308.15 K, x1 = 0.244	1186.2	38.65
308.15 K, x1 = 0.271	1191.8	53.78
313.15 K, x1 = 0.03	1049.3	1.359
313.15 K, x1 = 0.06	1088.3	2.321
313.15 K, x1 = 0.089	1116	3.88
313.15 K, x1 = 0.124	1139.6	7.053
313.15 K, x1 = 0.159	1156.7	11.02
313.15 K, x1 = 0.195	1169.7	16.99
313.15 K, x1 = 0.244	1182.6	29.62
313.15 K, x1 = 0.271	1188.3	40.63
318.15 K, x1 = 0.03	1045.6	1.215
318.15 K, x1 = 0.06	1085.1	2.033
318.15 K, x1 = 0.089	1112.4	3.326
318.15 K, x1 = 0.124	1135.9	5.797
318.15 K, x1 = 0.159	1153	9.05
318.15 K, x1 = 0.195	1166	13.74
318.15 K, x1 = 0.244	1179	23.16
318.15 K, x1 = 0.271	1184.7	31.55
323.15 K, x1 = 0.03	1042.7	1.097
323.15 K, x1 = 0.06	1081.8	1.798
323.15 K, x1 = 0.089	1108.8	2.89
323.15 K, x1 = 0.124	1132.2	4.929
323.15 K, x1 = 0.159	1149.3	7.56
323.15 K, x1 = 0.195	1162.4	11.33
323.15 K, x1 = 0.244	1175.4	18.71
323.15 K, x1 = 0.271	1181.2	24.85
328.15 K, x1 = 0.03	1040	0.997
328.15 K, x1 = 0.06	1078.4	1.603
328.15 K, x1 = 0.089	1105.2	2.54
328.15 K, x1 = 0.124	1128.5	4.221
328.15 K, x1 = 0.159	1145.5	6.369
328.15 K, x1 = 0.195	1158.7	9.485
328.15 K, x1 = 0.244	1171.8	15.31
328.15 K, x1 = 0.271	1177.6	20.06
333.15 K, x1 = 0.03	1035.9	0.906
333.15 K, x1 = 0.06	1075	1.441
333.15 K, x1 = 0.089	1101.6	2.248
333.15 K, x1 = 0.124	1124.8	3.656
333.15 K, x1 = 0.159	1141.8	5.446
333.15 K, x1 = 0.195	1155	8.051
333.15 K, x1 = 0.244	1168.2	12.77
333.15 K, x1 = 0.271	1174	16.49
338.15 K, x1 = 0.03	1031.9	0.828
338.15 K, x1 = 0.06	1071.4	1.302
338.15 K, x1 = 0.089	1097.9	2.006
338.15 K, x1 = 0.124	1121	3.199
338.15 K, x1 = 0.159	1138	4.666
338.15 K, x1 = 0.195	1151.3	6.86
338.15 K, x1 = 0.244	1164.5	10.74
338.15 K, x1 = 0.271	1170.4	13.75
343.15 K, x1 = 0.03	1027.2	0.761
343.15 K, x1 = 0.06	1067.6	1.185
343.15 K, x1 = 0.089	1094.1	1.806
343.15 K, x1 = 0.124	1117.2	2.715
343.15 K, x1 = 0.159	1134.3	4.069
343.15 K, x1 = 0.195	1147.6	5.932
343.15 K, x1 = 0.244	1160.9	9.231
343.15 K, x1 = 0.271	1166.8	11.68
348.15 K, x1 = 0.03	1023.3	0.7
348.15 K, x1 = 0.06	1064.1	1.083
348.15 K, x1 = 0.089	1090.4	1.629
348.15 K, x1 = 0.124	1113.4	2.428
348.15 K, x1 = 0.159	1130.5	3.568
348.15 K, x1 = 0.195	1143.8	5.143
348.15 K, x1 = 0.244	1157.2	7.953
348.15 K, x1 = 0.271	1163.2	9.976
